Here are results for 16 compounds from patent US8247377B2, “Non-steroidal glucocorticoid inhibitors and their use in treating inflammation, allergy and auto-immune conditions” (Glaxo Group Limited, priority 2006, dated 2012).

One experiment concerns NFκB. The experiment can be described thus: NFκB agonist assay in A549 SPAP cells.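 As to average maximum asymptote in the NFkB assay: maximum inhibition of the TNFα-induced NFκB-driven signal.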 The experiment is classed as cell-based. The settings on record: Homo sapiens; for Emax: A549, A549 SPAP cells, >85% = full agonist, ≧20% = partial or full agonist, read-out: average maximum asymptote in the NFkB assay; for IC50: A549 SPAP cells, TNFα 3.2 ng/ml, read-out: pIC50 for the NFkB assay (converted). An outline of the steps:
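A549 cells stably carrying an ELAM/NFκB-driven SPAP reporter were pre-incubated 1 h at 37° C with compound, then stimulated with TNFα (3.2 ng/ml final) for 15 h. SPAP activity read colorimetrically with pNPP at 405 nm after ~1 h; pIC50 estimated from dose-response curves.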

A further experiment deals with T1, progesterone receptor (Homo sapiens, UniProt P06401).
T1 construct: expressed in transfected cells; host or cells: CV-1 cells transduced with PRb-BacMam and MMTV-BacMam
T1 sequence (P06401 1-933): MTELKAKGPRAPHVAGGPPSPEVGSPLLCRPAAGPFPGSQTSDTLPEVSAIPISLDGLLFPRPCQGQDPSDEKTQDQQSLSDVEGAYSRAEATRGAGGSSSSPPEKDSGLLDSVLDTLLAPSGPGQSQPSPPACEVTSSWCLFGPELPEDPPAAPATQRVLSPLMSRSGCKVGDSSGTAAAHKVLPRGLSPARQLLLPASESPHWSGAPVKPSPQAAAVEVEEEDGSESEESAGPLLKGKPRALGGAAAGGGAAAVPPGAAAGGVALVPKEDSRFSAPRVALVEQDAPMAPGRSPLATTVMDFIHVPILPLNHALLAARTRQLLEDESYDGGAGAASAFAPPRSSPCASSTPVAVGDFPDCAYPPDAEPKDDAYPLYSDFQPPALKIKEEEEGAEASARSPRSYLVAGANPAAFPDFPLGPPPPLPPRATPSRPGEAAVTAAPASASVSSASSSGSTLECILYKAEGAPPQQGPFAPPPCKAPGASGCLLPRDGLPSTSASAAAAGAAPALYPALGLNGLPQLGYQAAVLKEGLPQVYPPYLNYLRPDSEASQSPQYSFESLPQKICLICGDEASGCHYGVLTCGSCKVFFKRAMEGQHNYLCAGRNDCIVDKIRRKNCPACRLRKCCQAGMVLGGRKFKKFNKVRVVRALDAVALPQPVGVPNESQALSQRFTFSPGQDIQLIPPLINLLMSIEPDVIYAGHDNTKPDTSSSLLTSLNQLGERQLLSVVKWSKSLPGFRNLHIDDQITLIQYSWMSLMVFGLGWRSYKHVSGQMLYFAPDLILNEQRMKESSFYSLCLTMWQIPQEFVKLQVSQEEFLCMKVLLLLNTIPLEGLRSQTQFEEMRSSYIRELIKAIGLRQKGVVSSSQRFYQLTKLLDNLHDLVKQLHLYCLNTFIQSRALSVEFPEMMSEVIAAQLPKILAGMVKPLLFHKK
The experiment can be described thus: Assay for progesterone receptor activity (CV-1 cells, PRb-BacMam/MMTV-BacMam). The experiment is classed as cell-based. Particulars: CV-1 cells transduced with PRb-BacMam and MMTV-BacMam; read-out: pEC50 progesterone receptor activity (converted). The procedure, abridged: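 CV-1 cells co-transduced with PRb-BacMam and MMTV-BacMam (10% each), seeded onto compounds in DMEM with 10% serum. After 24 h, luminescence was read with Steadylite. pEC50 values were estimated from dose-response curves.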

In the case of `CN(CC(O)(CNC(=O)c1cnn(-c2ccc(F)cc2)c1N)C(F)(F)F)C(=O)c1c(Cl)cccc1Cl` (racemic) [Example 1 (racemic), 5-Amino-N-(2-{[[(2,6-dichlorophenyl)carbonyl](methyl)amino]methyl}-3,3,3-trifluoro-2-hydroxypropyl)-1-(4-fluorophenyl)-1H-pyrazole-4-carboxamide], in the experiment with NFκB, the Emax was above 85% and the IC50 is below 1000 nM. Also, the EC50 on progesterone receptor was above 1000 nM.
Taken in the same sequence, the figures for `CCN(CC(O)(CNC(=O)c1cnn(-c2ccc(F)cc2)c1N)C(F)(F)F)C(=O)c1c(Cl)cccc1Cl` (racemic) [Example 2 (racemic), 5-Amino-N-(2-{[[(2,6-dichlorophenyl)carbonyl](ethyl)amino]methyl}-3,3,3-trifluoro-2-hydroxypropyl)-1-(4-fluorophenyl)-1H-pyrazole-4-carboxamide] were above 85%, below 1000 nM and above 1000 nM.
Turning to `Nc1c(C(=O)NCC(O)(CNC(=O)c2c(Cl)cccc2Cl)C(F)(F)F)cnn1-c1ccc(F)cc1` (racemic) [Example 3 (racemic), 5-Amino-N-[2-({[(2,6-dichlorophenyl)carbonyl]amino}methyl)-3,3,3-trifluoro-2-hydroxypropyl]-1-(4-fluorophenyl)-1H-pyrazole-4-carboxamide], in the experiment on NFκB, the Emax is at least 20% and the IC50 is below 1000 nM. The EC50 at progesterone receptor is above 1000 nM.
Taken in the same sequence, the figures for `CCN(CC(O)(CNC(=O)c1cnn(-c2ccc(F)cc2)c1N)C(F)(F)F)C(=O)c1c(F)cccc1Cl` (racemic) [Example 4 (racemic), 5-Amino-N-(2-{[[(2-chloro-6-fluorophenyl)carbonyl](ethyl)amino]methyl}-3,3,3-trifluoro-2-hydroxypropyl)-1-(4-fluorophenyl)-1H-pyrazole-4-carboxamide] were above 85%, below 1000 nM and above 1000 nM.
Taken in the same sequence, the figures for `CCN(CC(O)(CNC(=O)c1cnn(-c2ccc(F)cc2)c1N)C(F)(F)F)C(=O)c1c(F)cccc1F` (racemic) [Example 5 (racemic), 5-Amino-N-(2-{[[(2,6-difluorophenyl)carbonyl](ethyl)amino]methyl}-3,3,3-trifluoro-2-hydroxypropyl)-1-(4-fluorophenyl)-1H-pyrazole-4-carboxamide] were above 85%, below 1000 nM and above 1000 nM.
The like results for `Nc1c(C(=O)NCC(O)(CNC(=O)c2c(F)cccc2Cl)C(F)(F)F)cnn1-c1ccc(F)cc1` (racemic) [Example 7 (racemic), 5-Amino-N-[2-({[(2-chloro-6-fluorophenyl)carbonyl]amino}methyl)-3,3,3-trifluoro-2-hydroxypropyl]-1-(4-fluorophenyl)-1H-pyrazole-4-carboxamide] were, in that order, at least 20%, below 1000 nM and above 1000 nM.
As to `CN(CC(O)(CNC(=O)c1cnn(-c2ccc(F)cc2)c1N)C(F)(F)F)C(=O)c1c(F)cccc1F` (racemic) [Example 8 (racemic), 5-Amino-N-(2-{[[(2,6-difluorophenyl)carbonyl](methyl)amino]methyl}-3,3,3-trifluoro-2-hydroxypropyl)-1-(4-fluorophenyl)-1H-pyrazole-4-carboxamide], in the experiment with NFκB, the Emax was above 85% and the IC50 is below 1000 nM. Moreover, the EC50 on progesterone receptor is above 1000 nM.
Taken in the same sequence, the figures for `CN(CC(O)(CNC(=O)c1cnn(-c2ccc(F)cc2)c1N)C(F)(F)F)C(=O)c1c(F)cccc1Cl` (racemic) [Example 9 (racemic), 5-Amino-N-(2-{[[(2-chloro-6-fluorophenyl)carbonyl](methyl)amino]methyl}-3,3,3-trifluoro-2-hydroxypropyl)-1-(4-fluorophenyl)-1H-pyrazole-4-carboxamide] were above 85%, below 1000 nM and above 1000 nM.
As to `CCN(CC(O)(CNC(=O)c1cnn(-c2ccc(F)cc2)c1N)C(F)(F)F)C(=O)c1ccccc1S(C)(=O)=O` (racemic) [Example 10 (racemic), 5-Amino-N-{2-[(ethyl{[2-(methylsulfonyl)phenyl]carbonyl}amino)methyl]-3,3,3-trifluoro-2-hydroxypropyl}-1-(4-fluorophenyl)-1H-pyrazole-4-carboxamide], in the experiment on NFκB, the Emax was above 85% and the IC50 is below 1000 nM. Further, the EC50 at progesterone receptor is above 1000 nM.
The like results for `Nc1c(C(=O)NCC(O)(CNC(=O)c2c(Br)cccc2Br)C(F)(F)F)cnn1-c1ccc(F)cc1` (racemic) [Example 11 (racemic), 5-Amino-N-[2-({[(2,6-dibromophenyl)carbonyl]amino}methyl)-3,3,3-trifluoro-2-hydroxypropyl]-1-(4-fluorophenyl)-1H-pyrazole-4-carboxamide] were, in that order, at least 20%, below 1000 nM and above 1000 nM.
Taken in the same sequence, the figures for `Nc1c(C(=O)NCC(O)(CNC(=O)c2c(Cl)cccc2Br)C(F)(F)F)cnn1-c1ccc(F)cc1` (racemic) [Example 12 (racemic), 5-Amino-N-[2-({[(2-bromo-6-chlorophenyl)carbonyl]amino}methyl)-3,3,3-trifluoro-2-hydroxypropyl]-1-(4-fluorophenyl)-1H-pyrazole-4-carboxamide] were at least 20%, below 1000 nM and above 1000 nM.
Consider `Nc1c(C(=O)NCC(O)(CNC(=O)c2c(F)cccc2Br)C(F)(F)F)cnn1-c1ccc(F)cc1` (racemic) [Example 13 (racemic), 5-Amino-N-[2-({[(2-bromo-6-fluorophenyl)carbonyl]amino}methyl)-3,3,3-trifluoro-2-hydroxypropyl]-1-(4-fluorophenyl)-1H-pyrazole-4-carboxamide], for which, in the experiment on NFκB, the Emax is at least 20% and the IC50 was below 1000 nM. Moreover, on progesterone receptor, the EC50 was above 1000 nM.
The like results for `Nc1c(C(=O)NCC(O)(CNC(=O)c2c(Cl)cccc2OC(F)F)C(F)(F)F)cnn1-c1ccc(F)cc1` (racemic) [Example 14 (racemic), 5-Amino-N-(2-{[({2-chloro-6-[(difluoromethyl)oxy]phenyl}carbonyl)amino]methyl}-3,3,3-trifluoro-2-hydroxypropyl)-1-(4-fluorophenyl)-1H-pyrazole-4-carboxamide] were, in that order, at least 20%, below 1000 nM and above 1000 nM.
The like results for `Nc1c(C(=O)NCC(O)(CNC(=O)c2c(C(F)(F)F)cccc2C(F)(F)F)C(F)(F)F)cnn1-c1ccc(F)cc1` (racemic) [Example 15 (racemic), 5-amino-N-{2-[({[2,6-bis(trifluoromethyl)phenyl]carbonyl}amino)methyl]-3,3,3-trifluoro-2-hydroxypropyl}-1-(4-fluorophenyl)-1H-pyrazole-4-carboxamide] were, in that order, at least 20%, below 1000 nM and above 1000 nM.
The like results for `CN(CC(O)(CNC(=O)c1cnn(-c2ccc(F)cc2)c1N)C(F)(F)F)C(=O)c1c(Cl)cccc1Br` (racemic) [Example 16 (racemic), 5-amino-N-(2-{[[(2-bromo-6-chlorophenyl)carbonyl](methyl)amino]methyl}-3,3,3-trifluoro-2-hydroxypropyl)-1-(4-fluorophenyl)-1H-pyrazole-4-carboxamide] were, in that order, above 85%, below 1000 nM and above 1000 nM.
As for `Nc1c(C(=O)NCC(O)(CN(CCF)C(=O)c2c(F)cccc2F)C(F)(F)F)cnn1-c1ccc(F)cc1` (racemic) [Example 17 (racemic), 5-amino-N-(2-{[[(2,6-difluorophenyl)carbonyl](2-fluoroethyl)amino]methyl}-3,3,3-trifluoro-2-hydroxypropyl)-1-(4-fluorophenyl)-1H-pyrazole-4-carboxamide], in the experiment on NFκB, the Emax was above 85% and the IC50 was below 1000 nM. In addition, the EC50 on progesterone receptor was above 1000 nM.
